{"source": "patent US11725000B2", "about": "“Apoptosis inhibitors” (National Institute of Biological Sciences, Beijing, priority 2017, dated 2023)"}
{"system": "U2OS_Bim cells", "experiment": "Apoptosis inhibition assay (Bim-induced apoptosis, cell viability by ATP level)", "type": "cell-based", "details": "U2OS_Bim cells; estimated (*Est.) / preliminary results; numbering of Tables 4a/4b; read-out: EC50", "procedure,_shortened": "(§1)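 Apoptosis was triggered by doxycycline (0.1 μg/mL) induction of Bim, one hour after compound addition to U2OS_Bim cells. Survival was measured after 24 h from cellular ATP (CellTiter-Glo), relative to DMSO, with zVAD at 20 μM as rescue control. Data are duplicate means, some estimated from preliminary results.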", "units": {"EC50": "nM"}}
{"smiles": "Cc1cc(-c2cc(F)c(=O)n(Cc3ccc4c(c3)OCO4)c2)nc(S(=O)(=O)CCC(OCc2ccccc2F)c2cccn2C)n1", "note": "(stereo not drawn) [Compound 386]", "EC50": "1 to 1000"}
{"smiles": "Cc1cc(-c2cc(F)c(=O)n(Cc3ccc4nnn(C)c4c3)c2)nc(S(=O)(=O)CCCN2C(=O)Cc3ccccc32)n1", "note": "[Compound 363]", "EC50": "1 to 1000"}
{"smiles": "Cc1cc(-c2cc(F)c(=O)n(Cc3ccc4[nH]c(=O)c(=O)[nH]c4c3)c2)nc(S(=O)(=O)CCC(OCc2ccccc2F)c2ccccc2)n1", "note": "(stereo not drawn) [Compound 345]", "EC50": "1 to 1000"}
{"smiles": "Cc1cc(-c2cc(F)c(=O)n(Cc3ccc4nnn(C)c4c3)c2)nc(S(=O)(=O)CCCn2cnc3ccccc32)n1", "note": "[Compound 337, 5-(2-((3-(1H-benzo[d]imidazol-1-yl)propyl)sulfonyl)-6-methylpyrimidin-4-yl)-3-fluoro-1-((1-methyl-1H-benzo[d][1,2,3]triazol-6-yl)methyl)pyridin-2 (1H)-one]", "EC50": "1 to 1000"}
{"smiles": "Cc1cc(-c2cc(F)c(=O)n(Cc3ccc4c(c3)OCO4)c2)nc(S(=O)(=O)CCC(OCc2ccncc2)c2ccccc2)n1", "note": "(stereo not drawn) [Compound 402]", "EC50": "1 to 1000"}
{"smiles": "Cc1cc(-c2cc(F)c(=O)n(Cc3ccc4nnn(C)c4c3)c2)nc(S(=O)(=O)CCCC(=O)N(c2ccccc2)C2CC2)n1", "note": "[Compound 375]", "EC50": "1 to 1000"}
{"smiles": "Cc1cc(-c2cc(F)c(=O)n(Cc3ccc4c(c3)CCN4C)c2)nc(S(=O)(=O)CCC(OCc2ccccc2F)c2ccccc2)n1", "note": "(stereo not drawn) [Compound 352]", "EC50": "1 to 1000"}
{"smiles": "Cc1cc(-c2cc(F)c(=O)n(Cc3ccc4c(c3)OCO4)c2)nc(S(=O)(=O)CCC(OCc2ccccc2F)c2ccc3ncsc3c2)n1", "note": "(stereo not drawn) [Compound 396]", "EC50": "1 to 1000"}
{"smiles": "Cc1cc(-c2cc(F)c(=O)n(Cc3ccc4c(c3)OCO4)c2)nc(S(=O)(=O)CCC(OCc2cnco2)c2ccccc2)n1", "note": "(stereo not drawn) [Compound 408]", "EC50": "1 to 1000"}
{"smiles": "Cc1cc(-c2cc(F)c(=O)n(Cc3ccc4cn(C)nc4c3)c2)nc(S(=O)(=O)CCC(OCc2ccccc2F)c2ccccc2)n1", "note": "(stereo not drawn) [Compound 343]", "EC50": "1 to 1000"}
{"smiles": "Cc1cc(-c2cc(F)c(=O)n(Cc3ccc4c(c3)OCO4)c2)nc(S(=O)(=O)CCC(OCC2CCCC2)c2ccccc2)n1", "note": "(stereo not drawn) [Compound 412]", "EC50": "1 to 1000"}
{"system": "U2OS_Bim cells", "experiment": "Apoptosis inhibition assay (Bim-induced apoptosis, cell viability by ATP level)", "type": "cell-based", "details": "U2OS_Bim cells; estimated based on preliminary results; numbering of Tables 4a/4b; read-out: EC50", "procedure,_shortened": "as §1", "units": {"EC50": "nM"}}
{"smiles": "COc1ccc(Cn2cc(-c3cc(C(F)(F)F)nc(S(=O)(=O)Cc4cccnc4)n3)ccc2=O)cc1OC", "note": "[Compound 188]", "EC50": "< 10000"}
{"smiles": "COc1ccc(Cn2cc(-c3cc(C(F)(F)F)nc([S+]([O-])CN4CCCCC4)n3)ccc2=O)cc1OC", "note": "(stereo not drawn) [Compound 197]", "EC50": "< 10000"}
{"smiles": "C[S+]([O-])c1nc(-c2ccc(=O)n(Cc3ccc4cnccc4c3)c2)cc(C(F)(F)F)n1", "note": "(stereo not drawn) [Compound 249]", "EC50": "< 10000"}
{"smiles": "C[S+]([O-])c1nc(-c2ccc(=O)n(Cc3ccc4[nH]cnc4c3)c2)cc(C(F)(F)F)n1", "note": "(stereo not drawn) [Compound 229]", "EC50": "< 10000"}
{"smiles": "COc1ccc(Cn2cc(-c3cc(C4=CCC=C4)nc(S(C)(=O)=O)n3)ccc2=O)cc1OC", "note": "[Compound 208]", "EC50": "< 10000"}
{"smiles": "CCc1ccc(Cn2cc(-c3cc(C(F)(F)F)nc([S+](C)[O-])n3)ccc2=O)cc1CC", "note": "(stereo not drawn) [Compound 267]", "EC50": "< 10000"}
{"smiles": "COc1ccc(Cn2cc(-c3cc(C(F)(F)F)nc([S+]([O-])CN4CCCC4)n3)ccc2=O)cc1OC", "note": "(stereo not drawn) [Compound 198]", "EC50": "< 10000"}
{"smiles": "C[S+]([O-])c1nc(-c2ccc(=O)n(Cn3ccc4ccccc43)c2)cc(C(F)(F)F)n1", "note": "(stereo not drawn) [Compound 257]", "EC50": "< 10000"}
{"smiles": "CS(=O)(=O)c1nc(-c2ccc(=O)n(Cc3ccc4c(c3)OCCO4)c2)cc(C(F)(F)F)n1", "note": "[Compound 230]", "EC50": "< 10000"}
{"system": "U2OS_Bim cells", "experiment": "Apoptosis inhibition assay (Bim-induced apoptosis, cell viability by ATP level)", "type": "cell-based", "details": "U2OS_Bim cells; means of duplicates; numbering of Tables 4a/4b; read-out: EC50", "procedure,_shortened": "as §1", "units": {"EC50": "nM"}}
{"smiles": "COc1ccc(Cn2cc(-c3cc(C(F)(F)F)nc([S+]([O-])CCC(OCc4ccccc4)c4ccccc4)n3)ccc2=O)cc1OC", "note": "(stereo not drawn) [Compound 280, 5-(2-((3-(benzyloxy)-3-phenylpropyl)sulfinyl)-6-(trifluoromethyl)pyrimidin-4-yl)-1-(3,4-dimethoxybenzyl)pyridin-2 (1H)-one]", "EC50": "1 to 1000"}
{"smiles": "COc1ccc(Cn2ccc(-c3cc(C(F)(F)F)nc([S+](C)[O-])n3)c2)cc1", "note": "(stereo not drawn) [Compound 92, 4-(1-(4-methoxybenzyl)-1H-pyrrol-3-yl)-2-(methylsulfinyl)-6-(trifluoromethyl)pyrimidine]", "EC50": "< 100000"}
{"smiles": "CS(=O)(=O)c1nc(-c2cccc3ccccc23)cc(C(F)(F)F)n1", "note": "[Compound 76, 2-(methylsulfonyl)-4-(naphthalen-1-yl)-6-(trifluoromethyl)pyrimidine]", "EC50": "1000 to 20000"}
{"smiles": "CCOc1cccc(Cn2cc(-c3cc(C)nc([S+]([O-])CCC(OCc4ccc(F)cc4F)c4ccccc4)n3)cc(F)c2=O)c1", "note": "(stereo not drawn) [Compound 310, 5-(2-((3-((2,4-difluorobenzyl)oxy)-3-phenylpropyl)sulfinyl)-6-methylpyrimidin-4-yl)-1-(3-ethoxybenzyl)-3-fluoropyridin-2 (1H)-one]", "EC50": "1000 to 10000"}
{"smiles": "CS(=O)(=O)c1nc(-c2ccc(=O)n(Cc3ccc(Cl)cc3F)c2)cc(C(F)(F)F)n1", "note": "[Compound 124, 1-(4-chloro-2-fluorobenzyl)-5-(2-(methylsulfonyl)-6-(trifluoromethyl)pyrimidin-4-yl)pyridin-2 (1H)-one]", "EC50": "1 to 1000"}
{"smiles": "CS(=O)(=O)c1nc(-c2ccc(C#N)cc2)cc(C(F)(F)F)n1", "note": "[Compound 57]", "EC50": "< 100000"}
{"smiles": "[O-][S+](CCC(OCc1ccccc1)c1ccccc1)c1nc(-c2cccs2)cc(C(F)(F)F)n1", "note": "(stereo not drawn) [Compound 290, 2-(3-(benzyloxy)-3-phenylpropylsulfinyl)-4-(thiophen-2-yl)-6-(trifluoromethyl)pyrimidine]", "EC50": "1000 to 10000"}
{"smiles": "Cc1cc(-c2cc(F)c(=O)n(Cc3ccc4nc[nH]c4c3)c2)nc(S(=O)(=O)CCC(OCc2ccccc2F)c2ccccc2)n1", "note": "(stereo not drawn) [Compound 322, 1-((1H-benzo[d]imidazol-6-yl)methyl)-3-fluoro-5-(2-(3-(2-fluorobenzyloxy)-3-phenylpropylsulfonyl)-6-methylpyrimidin-4-yl)pyridin-2 (1H)-one]", "EC50": "1 to 1000"}
{"smiles": "Cc1cc(-c2cc(F)c(=O)n(Cc3ccc(Cl)c(Cl)c3)c2)nc(S(=O)(=O)CCC(OCc2ccc(F)cc2F)c2ccccc2)n1", "note": "(stereo not drawn) [Compound 316, 1-(3,4-dichlorobenzyl)-5-(2-(3-(2,4-difluorobenzyloxy)-3-phenylpropylsulfonyl)-6-methylpyrimidin-4-yl)-3-fluoropyridin-2 (1H)-one]", "EC50": "1000 to 10000"}
{"smiles": "C[S+]([O-])c1nc(-c2ccn(Cc3cccc(C#N)c3)c2)cc(C(F)(F)F)n1", "note": "(stereo not drawn) [Compound 98, 3-((3-(2-(methylsulfinyl)-6-(trifluoromethyl)pyrimidin-4-yl)-1H-pyrrol-1-yl)methyl)benzonitrile]", "EC50": "< 100000"}
{"smiles": "Cc1cc(-c2cc(F)c(=O)n(Cc3ccc4c(c3)no[n+]4[O-])c2)nc(S(=O)(=O)CCC(OCc2ccccc2F)c2ccccc2)n1", "note": "(stereo not drawn) [Compound 323]", "EC50": "1 to 1000"}
{"smiles": "CNS(=O)(=O)CCCS(=O)(=O)c1nc(-c2ccc(=O)n(Cc3ccc(OC)c(OC)c3)c2)cc(C(F)F)n1", "note": "[Compound 178, 3-((4-(difluoromethyl)-6-(1-(3,4-dimethoxybenzyl)-6-oxo-1,6-dihydropyridin-3-yl)pyrimidin-2-yl)sulfonyl)-N-methylpropane-1-sulfonamide]", "EC50": "1 to 1000"}
{"smiles": "CS(=O)(=O)c1nc(-c2ccc(=O)n(Cc3ccc4ccccc4c3)c2)cc(C(F)(F)F)n1", "note": "[Compound 134, 5-(2-(methylsulfonyl)-6-(trifluoromethyl)pyrimidin-4-yl)-1-(naphthalen-2-ylmethyl)pyridin-2 (1H)-one]", "EC50": "1000 to 10000"}
{"smiles": "COc1ccccc1-c1cc(C(F)(F)F)nc(S(C)(=O)=O)n1", "note": "[Compound 51, 4-(2-methoxyphenyl)-2-(methylsulfonyl)-6-(trifluoromethyl)pyrimidine]", "EC50": "1000 to 10000"}
{"smiles": "CS(=O)(=O)c1nc(-c2ccccc2C(=O)O)cc(C(F)(F)F)n1", "note": "[Compound 63, 2-(2-(methylsulfonyl)-6-(trifluoromethyl)pyrimidin-4-yl)benzoic acid]", "EC50": "< 100000"}
{"smiles": "CS(=O)(=O)c1nc(-c2cccc(C(N)=O)c2)cc(C(F)(F)F)n1", "note": "[Compound 66, 3-(2-(methylsulfonyl)-6-(trifluoromethyl)pyrimidin-4-yl)benzamide]", "EC50": "1000 to 10000"}
{"smiles": "C[S+]([O-])c1nc(-c2ccc[nH]c2=O)cc(C(F)(F)F)n1", "note": "(stereo not drawn) [Compound 81, 3-(2-(methylsulfinyl)-6-(trifluoromethyl)pyrimidin-4-yl)pyridin-2 (1H)-one]", "EC50": "< 100000"}
{"smiles": "COc1ccc(Cn2cc(-c3cc(C(F)F)nc(S(=O)(=O)CCC(O)c4ccccc4)n3)ccc2=O)cc1F", "note": "(stereo not drawn) [Compound 287, 5-(6-(difluoromethyl)-2-((3-hydroxy-3-phenylpropyl)sulfonyl)pyrimidin-4-yl)-1-(3-fluoro-4-methoxybenzyl)pyridin-2 (1H)-one]", "EC50": "1 to 1000"}
{"smiles": "Cc1cc(-c2cc(F)c(=O)n(Cc3ccc4c(c3)OCCO4)c2)nc(S(=O)(=O)CCC(OCc2ccccc2F)c2ccccc2)n1", "note": "(stereo not drawn) [Compound 331, 1-((2,3-dihydrobenzo[b][1,4]dioxin-6-yl)methyl)-3-fluoro-5-(2-(3-(2-fluorobenzyloxy)-3-phenylpropylsulfonyl)-6-methylpyrimidin-4-yl)pyridin-2 (1H)-one]", "EC50": "1 to 1000"}
{"smiles": "COc1ccc(Cn2cc(-c3cc(-c4cccs4)nc(S(=O)(=O)CCC(OCc4ccccc4)c4ccccc4)n3)ccc2=O)cc1OC", "note": "(stereo not drawn) [Compound 300, 5-(2-((3-(benzyloxy)-3-phenylpropyl)sulfonyl)-6-(thiophen-2-yl)pyrimidin-4-yl)-1-(3,4-dimethoxybenzyl)pyridin-2 (1H)-one]", "EC50": "1 to 1000"}
{"smiles": "COC(=O)c1ccc(-c2cc(C(F)(F)F)nc([S+](C)[O-])n2)cc1", "note": "(stereo not drawn) [Compound 62, methyl 4-(2-(methylsulfinyl)-6-(trifluoromethyl)pyrimidin-4-yl)benzoate]", "EC50": "< 100000"}
{"smiles": "Cc1cc(-c2cc(F)c(=O)n(CC3CCNCC3)c2)nc(S(=O)(=O)CCC(OCc2ccc(F)cc2F)c2ccccc2)n1", "note": "(stereo not drawn) [Compound 312, 5-(2-(3-(2,4-difluorobenzyloxy)-3-phenylpropylsulfonyl)-6-methylpyrimidin-4-yl)-3-fluoro-1-(piperidin-4-ylmethyl)pyridin-2 (1H)-one]", "EC50": "< 100000"}
